# US20230107941A1, “HEPATITIS B CAPSID ASSEMBLY MODULATORS” (Venatorx Pharmaceuticals, Inc., priority 2019, published 2023)
# Key:
# [1] = In vitro cytotoxicity assay (MTT cell viability) in HepG2 cells; assay type: cell-based, human; settings: human
# Method in brief: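 CC50 was derived by 4-parameter fit of viability relative to vehicle controls, measured as MTT formazan absorbance at 492 nm after 3–4 h of reagent and DMSO solubilization. Before that, HepG2 cells seeded overnight at 20,000/well were incubated 7 days at 37°C with compound from 30 μM down to 1.0 nM in half-log steps.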
# [2] = tested on: HBV; experiment: In vitro antiviral assay: anti-HBV replication in HepAD38 cells (extracellular HBV DNA by QPCR); assay type: cell-based, hepatitis B virus (genotype D, serotype ayw); settings: Hepatitis B virus, HePAD38, 168 h, 7 days incubation, extracellular HBV DNA by QPCR, read-out: Anti-HBV EC50
# Method in brief: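 Read-out is extracellular HBV DNA (copies/mL, QPCR standard curve) after 7-day exposure of tet-free HepAD38 cells to 10-fold dilutions from 1 μM down to 10 pM. Values normalised to DMSO vehicle; EC50 from 4-parameter nonlinear regression, with entecavir validating each run.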
SMILES,CC50 at 7 days [1] [nM],EC50 [2] [nM]
"Cc1cc(NC(=O)c2c(C)c(C(=O)C(=O)N[C@H]3CC[C@@H](O)CC3)n(C)c2C2CC2)ccc1F [Example 115, 2-cyclopropyl-N-(4-fluoro-3-methylphenyl)-5-(2-(((1s,4s)-4-hydroxycyclohexyl)amino)-2-oxoacetyl)-1,4-dimethyl-1H-pyrrole-3-carboxamide]",> 30000,< 50
"Cc1cc(NC(=O)c2c(C)c(C(=O)C(=O)NCC(C)(C)O)n(C)c2-c2nccs2)ccc1F [Example 178, N-(4-fluoro-3-methylphenyl)-5-(2-((2-hydroxy-2-methylpropyl)amino)-2-oxoacetyl)-1,4-dimethyl-2-(thiazol-2-yl)-1H-pyrrole-3-carboxamide]",> 30000,> 1000
"Cc1cc(NC(=O)c2c(C)c(C(=O)C(=O)N[C@]3(C)CC[C@H](O)CC3)n(C)c2CC2CC2)ccc1F [Example 125, 2-(cyclopropylmethyl)-N-(4-fluoro-3-methylphenyl)-5-(2-(((1s,4s)-4-hydroxy-1-methylcyclohexyl)amino)-2-oxoacetyl)-1,4-dimethyl-1H-pyrrole-3-carboxamide]",> 30000,< 50
"CCc1c(C(=O)Nc2ccc(F)c(C)c2)c(C)n(C)c1C(=O)C(=O)N[C@H]1CC[C@@H](O)CC1 [Example 86, 4-ethyl-N-(4-fluoro-3-methylphenyl)-5-(2-(((1s,4s)-4-hydroxycyclohexyl)amino)-2-oxoacetyl)-1,2-dimethyl-1H-pyrrole-3-carboxamide]",> 30000,< 50
"Cc1cc(NC(=O)c2c(C)c(C(=O)C(=O)N[C@H]3C[C@@H]4CC[C@H]3C4)n(C)c2C)ccc1F [Example 22, 5-(2-(((1S,2S,4R)-bicyclo[2.2.1]heptan-2-yl)amino)-2-oxoacetyl)-N-(4-fluoro-3-methylphenyl)-1,2,4-trimethyl-1H-pyrrole-3-carboxamide]",5000 to 30000,< 50
"Cc1cc(NC(=O)c2c(C)c(C(=O)C(=O)N[C@]3(C)C[C@H](O)C3)n(C)c2-c2ccsc2)ccc1F [Example 181, N-(4-fluoro-3-methylphenyl)-5-(2-(((1s,3s)-3-hydroxy-1-methylcyclobutyl)amino)-2-oxoacetyl)-1,4-dimethyl-2-(thiophen-3-yl)-1H-pyrrole-3-carboxamide]",5000 to 30000,500 to 1000
"CCC1(NC(=O)C(=O)c2c(C)c(C(=O)Nc3ccc(F)c(C)c3)c(C)n2C)CCN(c2cnccn2)CC1 [Example 50, 5-(2-((4-ethyl-1-(pyrazin-2-yl)piperidin-4-yl)amino)-2-oxoacetyl)-N-(4-fluoro-3-methylphenyl)-1,2,4-trimethyl-1H-pyrrole-3-carboxamide]",> 30000,< 50
"Cc1cc(NC(=O)c2c(C)c(C(=O)C(=O)N[C@H]3CC[C@@H](O)CC3)n(C)c2-c2nccs2)ccc1F [Example 177, N-(4-fluoro-3-methylphenyl)-5-(2-(((1s,4s)-4-hydroxycyclohexyl)amino)-2-oxoacetyl)-1,4-dimethyl-2-(thiazol-2-yl)-1H-pyrrole-3-carboxamide]",> 30000,> 1000
"Cc1cc(NC(=O)c2c(C)c(C(=O)C(=O)NC3(C)CCN(C(=O)N4CCOCC4)CC3)n(C)c2C)ccc1F [Example 36, N-(4-fluoro-3-methylphenyl)-1,2,4-trimethyl-5-(2-((4-methyl-1-(morpholine-4-carbonyl)piperidin-4-yl)amino)-2-oxoacetyl)-1H-pyrrole-3-carboxamide]",> 30000,< 50
"Cc1c(C(=O)Nc2ccc(F)c(C#N)c2)c(C)n(C)c1C(=O)C(=O)N[C@]1(C)CC[C@@H](O)CC1 [Example 16, N-(3-cyano-4-fluorophenyl)-5-(2-(((1r,4r)-4-hydroxy-1-methylcyclohexyl)amino)-2-oxoacetyl)-1,2,4-trimethyl-1H-pyrrole-3-carboxamide]",> 30000,< 50
"Cc1c(C(=O)Nc2ccc(F)c(C3CC3)c2)c(C)n(C)c1C(=O)C(=O)N[C@]1(C)CC[C@@H](O)CC1 [Example 136, N-(3-cyclopropyl-4-fluorophenyl)-5-(2-(((1r,4r)-4-hydroxy-1-methylcyclohexyl)amino)-2-oxoacetyl)-1,2,4-trimethyl-1H-pyrrole-3-carboxamide]",> 30000,< 50
"Cc1c(C(=O)Nc2cccc(S(N)(=O)=O)c2)c(C)n(C)c1C(=O)C(=O)NC(C)(C)C [Example 65, 5-(2-(tert-butylamino)-2-oxoacetyl)-1,2,4-trimethyl-N-(3-sulfamoylphenyl)-1H-pyrrole-3-carboxamide]",> 30000,> 1000
"Cc1cc(NC(=O)c2c(C)c(C(=O)C(=O)NC34CC(O)(C3)C4)n(C)c2C)ccc1F [Example 82, N-(4-fluoro-3-methylphenyl)-5-(2-((3-hydroxybicyclo[1.1.1]pentan-1-yl)amino)-2-oxoacetyl)-1,2,4-trimethyl-1H-pyrrole-3-carboxamide]",> 30000,< 50
"Cc1cc(NC(=O)c2c(C)c(C(=O)C(=O)N[C@]3(C)CC[C@H](O)CC3)n(C)c2-c2cccnc2)ccc1F [Example 152, N-(4-fluoro-3-methylphenyl)-5-(2-(((1s,4s)-4-hydroxy-1-methylcyclohexyl)amino)-2-oxoacetyl)-1,4-dimethyl-2-(pyridin-3-yl)-1H-pyrrole-3-carboxamide]",> 30000,> 1000
"Cc1cc(NC(=O)c2c(C)c(C(=O)C(=O)N[C@@H]3CC[C@H](O)C[C@H]3F)n(C)c2C)ccc1F [Example 15, N-(4-fluoro-3-methylphenyl)-5-(2-(((1R,2R,4S)-2-fluoro-4-hydroxycyclohexyl)amino)-2-oxoacetyl)-1,2,4-trimethyl-1H-pyrrole-3-carboxamide]",> 30000,< 50
"Cc1cc(NC(=O)c2c(C)c(C(=O)C(=O)N[C@H]3CCN(CC(=O)O)C3)n(C)c2C)ccc1F [Example 28, (S)-2-(3-(2-(4-((4-fluoro-3-methylphenyl)carbamoyl)-1,3,5-trimethyl-1H-pyrrol-2-yl)-2-oxoacetamido)pyrrolidin-1-yl)acetic acid]",> 30000,> 1000
"CC(=O)N1CC[C@@H](NC(=O)C(=O)c2c(C)c(C(=O)Nc3ccc(F)c(C)c3)c(C)n2C)C(F)(F)C1 [Example 148, (R)-5-(2-((1-acetyl-3,3-difluoropiperidin-4-yl)amino)-2-oxoacetyl)-N-(4-fluoro-3-methylphenyl)-1,2,4-trimethyl-1H-pyrrole-3-carboxamide]",> 30000,< 50
"CCC(CC)NC(=O)C(=O)c1c(C)c(C(=O)Nc2ccc(F)c(C)c2)c(C)n1C [Example 188, N-(4-fluoro-3-methylphenyl)-1,2,4-trimethyl-5-(2-oxo-2-(pentan-3-ylamino)acetyl)-1H-pyrrole-3-carboxamide]",5000 to 30000,< 50
"CCC1(NC(=O)C(=O)c2c(C)c(C(=O)Nc3ccc(F)c(C)c3)c(C)n2C)CCN(C(=O)c2cnn(C)c2)CC1 [Example 38, 5-(2-((4-ethyl-1-(1-methyl-1H-pyrazole-4-carbonyl)piperidin-4-yl)amino)-2-oxoacetyl)-N-(4-fluoro-3-methylphenyl)-1,2,4-trimethyl-1H-pyrrole-3-carboxamide]",> 30000,< 50
"Cc1cc(NC(=O)c2c(C3CC3)c(C(=O)C(=O)NC3CCN(c4cccnn4)CC3)n(C)c2C)ccc1F [Example 103, 4-cyclopropyl-N-(4-fluoro-3-methylphenyl)-1,2-dimethyl-5-(2-oxo-2-((1-(pyridazin-3-yl)piperidin-4-yl)amino)acetyl)-1H-pyrrole-3-carboxamide]",> 30000,500 to 1000
"Cc1cc(NC(=O)c2c(C)c(C(=O)C(=O)N[C@H]3CN[C@H](C(=O)O)C3)n(C)c2C)ccc1F [Example 173, (2S,4R)-4-(2-(4-((4-fluoro-3-methylphenyl)carbamoyl)-1,3,5-trimethyl-1H-pyrrol-2-yl)-2-oxoacetamido)pyrrolidine-2-carboxylic acid]",> 30000,500 to 1000
"Cc1c(C(=O)Nc2cc(Cl)nc(Cl)c2)c(C)n(C)c1C(=O)C(=O)N[C@H](C)C(F)(F)F [Example 51, (R)-N-(2,6-dichloropyridin-4-yl)-1,2,4-trimethyl-5-(2-oxo-2-((1,1,1-trifluoropropan-2-yl)amino)acetyl)-1H-pyrrole-3-carboxamide]",> 30000,< 50
"CC(=O)N1CC[C@@H](NC(=O)C(=O)c2c(C)c(C(=O)Nc3ccc(F)c(C)c3)c(C)n2C)[C@H](O)C1 [Example 167, 5-(2-(((3R,4R)-1-acetyl-3-hydroxypiperidin-4-yl)amino)-2-oxoacetyl)-N-(4-fluoro-3-methylphenyl)-1,2,4-trimethyl-1H-pyrrole-3-carboxamide]",> 30000,500 to 1000
"Cc1cc(NC(=O)c2c(C)c(C(=O)C(=O)N[C@H]3CC[C@@H](S(C)(=O)=O)CC3)n(C)c2C2CCCC2)ccc1F [Example 131, 2-cyclopentyl-N-(4-fluoro-3-methylphenyl)-1,4-dimethyl-5-(2-(((1s,4s)-4-(methylsulfonyl)cyclohexyl)amino)-2-oxoacetyl)-1H-pyrrole-3-carboxamide]",5000 to 30000,> 1000
"Cc1cc(NC(=O)c2c(C3CC3)c(C(=O)C(=O)N[C@H]3CC[C@@H](S(C)(=O)=O)CC3)n(C)c2C)ccc1F [Example 100, 4-cyclopropyl-N-(4-fluoro-3-methylphenyl)-1,2-dimethyl-5-(2-(((1s,4s)-4-(methylsulfonyl)cyclohexyl)amino)-2-oxoacetyl)-1H-pyrrole-3-carboxamide]",> 30000,< 50
